Assay results from US11326165B1, “Methods and compositions for modulating splicing” (SKYHAWK THERAPEUTICS, INC., priority 2017, dated 2022).
pEC50, pIC50: −log10 of the molar value.

Tests used:
[1] = Maximum tolerable dose study (survival, body weight); type: in vivo; settings: mice
Procedure: Survival of mice after administration of SMSMs after 10 or 11 days was assessed.
Tolerance of the drug treatments was determined by measuring the weight of the mice during the period of drug administration. Body weight was measured prior to tumor inoculation and prior to the treatment administration and then daily. The changes in the final weight of the mice for the SMSM treatments were determined.

A673 cells = test: Cell viability and proliferation, A673 cells (crystal violet); type: cell-based; settings: cell proliferation IC50 in NHDF cells over A673 cells, 72 h
Procedure: Small molecule splicing modulators were tested in a dose-response assay using A673 cells and NHDF cells.
A673 cells or NHDF cells were first plated in 96-well plastic tissue culture plates (10,000 cells per well). The cells were treated with vehicle alone (DMSO), or increasing concentrations of SMSM compounds for 72 h. Following treatment, cell proliferation was determined using a crystal violet assay. The relative cell proliferation at each concentration was determined.

A673 xenografts = A673 xenografts in nude mice, tumor growth inhibition; type: in vivo; settings: A673 xenograft (FIGS. 14A-C)
Procedure: Dose range and time course studies comparing anti-neoplastic effects of SMSM−167 and SMSM−151 against vehicle were conducted.
Female NCrNu mice were used. Age range of enrolment was 7-10 weeks. A total of 75 animals were for the studies.
The A673 tumor cell line was maintained in vitro as a monolayer culture. […] The cells growing in an exponential growth phase were harvested and counted for tumor inoculation.
Each mouse were inoculated into a right flank with the single cell suspension of 95% viable tumor cells (5×10^6 cells/mouse) in serum-free RPMI 1640 Media for tumor development. Treatments were administered when mean tumor size reached approximately 75 mm^3.
Before commencement of treatment, all animals were weighed and assigned to treatment groups using a randomization procedure. Mice were randomized into groups based upon their tumor sizes to ensure that each group had approximately the same mean tumor size and range of tumor size.
After inoculation, the animals were checked daily for morbidity and mortality. At the time of routine monitoring, the animals were checked for any effects of tumor growth on normal behavior such as mobility, food and water consumption, body weight gain/loss, eye/hair matting and any other abnormal effects. Deaths and observed clinical signs were recorded.
Body weight were measured prior to tumor inoculation and prior to the treatment administration and then daily. Tumor size were measured 2-3 times per week in two dimensions using a caliper, and the volume were expressed in mm^3 using the formula: V=0.5×a×b^2 where a and b are the long and short diameters of the tumor, respectively.
(§1) Studies were terminated when the tumor size in the vehicle treated group reached 2,000 mm^3. Each mouse was bled at 2 hrs after the last dose and at least 50 μl of plasma were collected from each mouse. All of the collected plasma samples and retainer dosing solutions for each dose level were used for bioanalytical measurements. All tumors were also collected and weighed. One necrosis-free tumor fragment of approximately 50 mg was taken from each tumor and flash-frozen for RNA isolation. The remaining tumor was flash frozen for PK analysis.
Studies were performed to assess the effects of in vivo SMSM treatment on glioblastoma, breast, pancreatic, prostate, melanoma, lymphoma and Ewing sarcoma tumors. Studies were also performed to assess the effects of in vivo SMSM treatment on mRNA levels. Immunocompromised nude mice with pre-existing glioblastoma, breast, pancreatic, prostate, melanoma, lymphoma and Ewing sarcoma xenografts were treated with vehicle or SMSMs. Tumor tissues from subcutaneous xenografts were broken into a powder using a BioPulverizer (Biospec Products, Inc.). After SMSM treatment, mRNA was isolated from the xenografts and was analyzed by qRT-PCR.
as §1, with “Tumor size was measured 2 times per week in two dimensions using a caliper. Studies” for “Studies”, “plasma was” for “plasma were”
The effects of in vivo SMSM treatments on pre-existing subcutaneous glioblastoma, breast, pancreatic, prostate, melanoma, lymphoma and Ewing sarcoma xenografts were assessed. For these in vivo experiments, 1×10^6Raji, A375, A673, MDA-MB-231, BxPC-3, PC-3 or U87 (cells re-suspended in 100 μl PBS were subcutaneously injected into the flanks of nude mice. When the tumor reached approximately 100 mm^3 (volume=(¾)(π)(length/2)(width/2)^2), the treatments indicated in the tables below were initiated. […]

A-673 cells = test: A-673 cell viability; type: cell-based; settings: Homo sapiens, A673
Procedure: FIG. 9A depicts a graph of viable A-673 cells when incubated with the indicated concentrations of an SMSM.

FoxM1 BC mRNA = test: FoxM1 splicing in cells: FoxM1 BC mRNA decrease (exon included); type: cell-based; settings: read-out: Splice IC50 (nM) FoxM1 BC mRNA decrease (exon included)
Procedure: (§2) FIG. 7 depicts a graph of relative transcript levels of FOXM1 isoform A (represses cancer) and FOXM1 isoform B (promotes cancer) in A-673 cells incubated with the indicated concentrations of an SMSM.

FoxM1 A mRNA = test: FoxM1 splicing in cells: FoxM1 A mRNA increase (exon excluded); type: cell-based; settings: read-out: Splice EC50 (nM) FoxM1 A mRNA increase (exon excluded)
Procedure: as §2

IKBKAP = IKBKAP splicing assay (IKBKAP^FL and IKBKAP^Δ20 mRNA, qPCR); type: cell-based; settings: 24 hours
Procedure: Various cells lines were treated with the SMSMs described herein. RNA was then isolated, cDNA synthesized, qPCR performed and the levels of IKBKAP targets of the SMSMs were detemined.
On the day of the experiment, a 96-well plate was seeded with the cell lines of interest. The cells were diluted with full growth media to a concentration of 2.0×10^5 cells/mL and 100 μL of cells were added to each well (20,000 cells per well). The cells were treated with a compound immediately after plating.
The compounds were then added to the cell plate using the HP compound dispenser. In the initial experiment, atop concentration of 10 μM and an 8 point 4-fold dilution scheme was used. […]
The qPCR was performed using a QuantStudio 6 instrument (ThermoFisher) and the following cycling conditions and according to the tables below. All samples and standards were analyzed in triplicate. […]
The determined IKBKAP^FL and IKBKAP^Δ20 isoform quantities were then used to determine the IKBKAP^FL: IKBKAP^Δ20 ratio at increasing SMSM compound concentrations. The PPIA quantities were used in the normalization to account of cell proliferation effects of the compounds.
An assay to measure the IKBKAP^FL mRNA and IKBKAP^Δ20 mRNA simultaneously in cell wells was performed. The RNA values were measured relative to DMSO control and also included a housekeeping gene, PPIA to ensure data was consistent. […]

CN(c1ccc(-c2cc(F)c(-c3cn[nH]c3)cc2O)nn1)[C@H]1C[C@]2(C)CC[C@](C)(C1)N2 [compound 167, 2-(6-(((1R,3s,5S)-1,5-dimethyl-8-azabicyclo[3.2.1]octan-3-yl)(methyl)amino)pyridazin-3-yl)-4-fluoro-5-(1H-pyrazol-4-yl)phenol]
Outcome ([1]; IP, 0.1 mg/kg, BIDx12): All survived
Outcome ([1]; IP, 0.3 mg/kg, BIDx12): All survived
Outcome ([1]; IP, 1 mg/kg, QDx12): All survived
Outcome ([1]; PO, 5 mg/kg, QDx12): All survived
Ratio NHDF/A673 IC50 (A673 cells): >2,500
TGI(%) (A673 xenografts; 5 mg/kg BID PO, Day 7): 65.56%
TGI(%) (A673 xenografts; 5 mg/kg BID PO, Day 11): 56.92%
TGI(%) (A673 xenografts; 5 mg/kg BID PO, Day 14): 55.14%
TGI(%) (A673 xenografts; 5 mg/kg BID PO, Day 18): 59.68%
TGI(%) (A673 xenografts; 7.5 mg/kg BID PO, Day 7): 59.45%
TGI(%) (A673 xenografts; 7.5 mg/kg BID PO, Day 11): 64.75%
TGI(%) (A673 xenografts; 7.5 mg/kg BID PO, Day 14): 64.43%
TGI(%) (A673 xenografts; 7.5 mg/kg BID PO, Day 18): 72.80%
TGI(%) (A673 xenografts; 10 mg/kg QD PO, Day 7): −32.72%
TGI(%) (A673 xenografts; 10 mg/kg QD PO, Day 11): 3.85%
TGI(%) (A673 xenografts; 10 mg/kg QD PO, Day 14): −2.13%
TGI(%) (A673 xenografts; 10 mg/kg QD PO, Day 18): 41.77%

Oc1cc(C2C=NN=N2)ccc1-c1ccc(O[C@@H]2C[C@H]3CC[C@@H](C2)N3)nn1 (stereo partly drawn) [compound 253, 2-(6-(((1R,3s,5S)-8-azabicyclo[3.2.1]octan-3-yl)oxy)pyridazin-3-yl)-5-(1H-1,2,3-triazol-4-yl)phenol]
IC50 (A-673 cells): 501 to 1000 nM
IC50 (FoxM1 BC mRNA): 251 to 500 nM
EC50 (FoxM1 A mRNA): 251 to 500 nM

Oc1cc(-c2cn[nH]c2)ccc1-c1ccc(O[C@@H]2C[C@H]3CCC[C@@H](C2)N3)nn1 [compound 276, 2-(6-(((1R,3s,5S)-9-azabicyclo[3.3.1]nonan-3-yl)oxy)pyridazin-3-yl)-5-(1H-pyrazol-4-yl)phenol]
IC50 (A-673 cells): 101 to 250 nM

Oc1cc(-c2cn[nH]c2)ccc1-c1ccc(O[C@H]2C[C@H]3CCC[C@@H](C2)N3)nn1 [compound 277, 2-(6-(((1R,3r,5S)-9-azabicyclo[3.3.1]nonan-3-yl)oxy)pyridazin-3-yl)-5-(1H-pyrazol-4-yl)phenol]
IC50 (A-673 cells): > 1000 nM
IC50 (FoxM1 BC mRNA): > 1000 nM
EC50 (FoxM1 A mRNA): > 1000 nM

Oc1cc(-c2cn[nH]c2)c(F)cc1-c1ccc(O[C@@H]2C[C@H]3CCC[C@@H](C2)N3)nn1 [compound 278, 2-(6-(((1R,3s,5S)-9-azabicyclo[3.3.1]nonan-3-yl)oxy)pyridazin-3-yl)-4-fluoro-5-(1H-pyrazol-4-yl)phenol]
pEC50 (IKBKAP; IKBKAP^FL mRNA increase): 6.46 to 7.00
pIC50 (IKBKAP; IKBKAP^Δ20 mRNA decrease): > 6.70
